Patent US11613545B2, “Macrocyclic compound serving as Wee1 inhibitor and applications thereof” (WUXI BIOCITY BIOPHARMACEUTICS CO., LTD., priority 2017, dated 2023)

molecular target: T1, Wee1 (Homo sapiens, UniProt P30291); assay: In vitro enzymatic inhibitory activity, Wee1 kinase (Eurofins, [γ-33P]-ATP filter assay); type: biochemical; conditions: 10 μM [γ-33P]-ATP, 40 min at room temperature
T1 construct: purchased Eurofins
Procedure: The experimental tests were conducted at Eurofins, and the results were provided by the company.
After adding the mixed solution of Mg^2+ and ATP, the reaction started and the reaction solution was incubated at room temperature for 40 min. 3% phosphate buffer was added to stop the reaction. 10 μL of the reaction solution was filtered on a continuous filter P30, washed three times with 75 mM phosphate buffer, once with methanol, and 5 minutes each time. After drying, the value was read by scintillation counting method.

T1 sequence (P30291 whole entry): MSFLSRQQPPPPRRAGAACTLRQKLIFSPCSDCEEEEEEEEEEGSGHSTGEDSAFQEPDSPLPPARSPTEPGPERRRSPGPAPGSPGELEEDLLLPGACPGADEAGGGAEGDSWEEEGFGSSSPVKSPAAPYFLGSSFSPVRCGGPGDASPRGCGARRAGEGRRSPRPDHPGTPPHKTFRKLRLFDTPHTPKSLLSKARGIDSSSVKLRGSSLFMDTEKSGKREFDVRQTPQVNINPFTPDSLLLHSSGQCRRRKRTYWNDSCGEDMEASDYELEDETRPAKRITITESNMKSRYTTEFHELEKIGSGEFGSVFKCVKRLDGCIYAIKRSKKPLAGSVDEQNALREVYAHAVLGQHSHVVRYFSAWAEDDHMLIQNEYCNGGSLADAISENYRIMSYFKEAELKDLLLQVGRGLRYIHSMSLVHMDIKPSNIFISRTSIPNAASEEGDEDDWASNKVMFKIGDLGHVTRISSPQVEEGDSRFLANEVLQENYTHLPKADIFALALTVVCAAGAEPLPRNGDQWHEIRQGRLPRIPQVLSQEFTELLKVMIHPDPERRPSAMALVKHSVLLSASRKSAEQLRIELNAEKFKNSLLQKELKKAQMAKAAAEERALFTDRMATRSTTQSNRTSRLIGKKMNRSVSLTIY

SMILES | IC50
C[C@]1(O)CC/C=C\Cn2c(=O)c3cnc(Nc4ccccc4)nc3n2-c2cccc1n2 [Compound 13] | 265 nM
CN1CC2CN(c3ccc(Nc4ncc5c(=O)n6n(c5n4)-c4cccc(n4)[C@@](C)(O)CC/C=C\C6)cc3)CC2C1 (some centres unmarked) [Compound 25] | 78 nM
CN(C)C1CCN(c2ccc(Nc3ncc4c(=O)n5n(c4n3)-c3cccc(n3)[C@](C)(O)CC/C=C\C5)cc2)CC1 [Compound 38] | 48 nM
C[C@]1(O)CC/C=C\Cn2c(=O)c3cnc(Nc4ccc(F)cc4)nc3n2-c2cccc1n2 [Compound 31] | 323 nM
CN(C)CCOc1ccc(Nc2ncc3c(=O)n4n(c3n2)-c2cccc(n2)[C@](C)(O)CC/C=C\C4)cc1 [Compound 18] | 29 nM
CN1CCc2ccc(Nc3ncc4c(=O)n5n(c4n3)-c3cccc(n3)[C@](C)(O)CC/C=C\C5)cc2C1 [Compound 26] | 30 nM
C[C@]1(O)CC/C=C\Cn2c(=O)c3cnc(Nc4ccc(N5CCOCC5)cc4)nc3n2-c2cccc1n2 [Compound 33] | 151 nM
COCc1cc(Nc2ncc3c(=O)n4n(c3n2)-c2cccc(n2)[C@](C)(O)CC/C=C\C4)ccc1N1CCN(C)CC1 [Compound 23] | 29 nM
CN1CCN(c2cccc(Nc3ncc4c(=O)n5n(c4n3)-c3cccc(n3)[C@](C)(O)CC/C=C\C5)c2)CC1 [Compound 34] | 116 nM
C[C@@]1(O)CC/C=C\Cn2c(=O)c3cnc(Nc4ccccc4)nc3n2-c2cccc1n2 [Compound 12] | 59 nM
CC1(O)CC/C=C\Cn2c(=O)c3cnc(Nc4ccc(N5CCNCC5)cc4)nc3n2-c2cccc1n2 (centres unmarked) [Compound 6] | 46 nM
CN1CCN(c2ccc(Nc3ncc4c(=O)n5n(c4n3)-c3cccc(n3)[C@](C)(O)CC/C=C\C5)cc2CO)CC1 [Compound 22] | 16 nM
COc1cccc(Nc2ncc3c(=O)n4n(c3n2)-c2cccc(n2)[C@](C)(O)CC/C=C\C4)c1 [Compound 16] | 60 nM
CN(C)CCOc1ccc(Nc2ncc3c(=O)n4n(c3n2)-c2cccc(n2)[C@@](C)(O)CC/C=C\C4)cc1 [Compound 19] | 72 nM
CN(C)C1CCN(c2ccc(Nc3ncc4c(=O)n5n(c4n3)-c3cccc(n3)C(C)(O)CC/C=C\C5)cc2)CC1 (centres unmarked) [Compound 9] | 41 nM
CN(C)CCOc1cccc(Nc2ncc3c(=O)n4n(c3n2)-c2cccc(n2)[C@](C)(O)CC/C=C\C4)c1 [Compound 36] | 35 nM
CN1CCC2(CC1)CCN(c1ccc(Nc3ncc4c(=O)n5n(c4n3)-c3cccc(n3)C(C)(O)CC/C=C\C5)cc1)CC2 (centres unmarked) [Compound 7] | 54 nM
C[C@@]1(O)CC/C=C\Cn2c(=O)c3cnc(Nc4ccc(N5CCOCC5)cc4)nc3n2-c2cccc1n2 [Compound 32] | 37 nM

SMILES | IC50
CN1CCC(c2ccc(Nc3ncc4c(=O)n5n(c4n3)-c3cccc(n3)[C@@](C)(O)CC/C=C\C5)cc2)CC1 [Compound 21] | 280 nM
CN1CCC(c2ccc(Nc3ncc4c(=O)n5n(c4n3)-c3cccc(n3)[C@](C)(O)CC/C=C\C5)cc2)CC1 [Compound 20] | 173 nM
CC1(O)CC/C=C\Cn2c(=O)c3cnc(Nc4ccc(N5CCCNCC5)cc4)nc3n2-c2cccc1n2 (centres unmarked) [Compound 11] | 102 nM
CN1CC2CN(c3ccc(Nc4ncc5c(=O)n6n(c5n4)-c4cccc(n4)[C@](C)(O)CC/C=C\C6)cc3)CC2C1 (some centres unmarked) [Compound 24] | 57 nM
C[C@@]1(O)CC/C=C\Cn2c(=O)c3cnc(Nc4ccc(OC5CC5)cc4)nc3n2-c2cccc1n2 [Compound 40] | 35 nM
C[C@@]1(O)CC/C=C\Cn2c(=O)c3cnc(Nc4ccc(Cl)cc4)nc3n2-c2cccc1n2 [Compound 39] | 54 nM
CN1CCc2ccc(Nc3ncc4c(=O)n5n(c4n3)-c3cccc(n3)[C@@](C)(O)CC/C=C\C5)cc2C1 [Compound 27] | 37 nM
CN1CCCN(c2ccc(Nc3ncc4c(=O)n5n(c4n3)-c3cccc(n3)[C@](C)(O)CC/C=C\C5)cc2)CC1 [Compound 37] | 31 nM
C[C@]1(O)CC/C=C\Cn2c(=O)c3cnc(Nc4cccc(F)c4)nc3n2-c2cccc1n2 [Compound 29] | 444 nM
C[C@@]1(O)CC/C=C\Cn2c(=O)c3cnc(Nc4ccc(N5CCC(F)(F)CC5)cc4)nc3n2-c2cccc1n2 [Compound 41] | 16 nM
C[C@@]1(O)CC/C=C\Cn2c(=O)c3cnc(Nc4cccc(F)c4)nc3n2-c2cccc1n2 [Compound 28] | 79 nM
CN(C)CCOc1cccc(Nc2ncc3c(=O)n4n(c3n2)-c2cccc(n2)[C@@](C)(O)CC/C=C\C4)c1 [Compound 42] | 221 nM
CC1(O)CC/C=C\Cn2c(=O)c3cnc(Nc4ccc(N5CCC(F)(F)CC5)cc4)nc3n2-c2cccc1n2 (centres unmarked) [Compound 3] | 42 nM
C[C@@]1(O)CC/C=C\Cn2c(=O)c3cnc(Nc4ccc(F)cc4)nc3n2-c2cccc1n2 [Compound 30] | 67 nM
CN1CCCN(c2ccc(Nc3ncc4c(=O)n5n(c4n3)-c3cccc(n3)C(C)(O)CC/C=C\C5)cc2)CC1 (centres unmarked) [Compound 10] | 49 nM
CN1CCN(c2cccc(Nc3ncc4c(=O)n5n(c4n3)-c3cccc(n3)[C@@](C)(O)CC/C=C\C5)c2)CC1 [Compound 35] | 276 nM
COc1cccc(Nc2ncc3c(=O)n4n(c3n2)-c2cccc(n2)[C@@](C)(O)CC/C=C\C4)c1 [Compound 17] | 366 nM
